Test systems include HOP-18 NSCLC; LXFL 529 NSCLC; XF 498 CNS; DLD-1 colon; RXF-631 renal; SNB-78 CNS; P388/ADR leukemia; P388 leukemia; SN12K1 renal.
What all share (test): NCI tumour cell line growth inhibition, 48 h

The structures appear in SMILES notation.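 The compound was tested at five concentrations on cells cultured in 96-well plates, with a 48-hour exposure period. TGI is the concentration that stops growth completely.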

`O=C(c1ccccc1)[C@H]1Nc2cnccc2C2c3ccccc3CC21` (some centres not stated): the TGI was 45.6 µM in the assay on HOP-18 NSCLC; 19.7 µM in the assay with LXFL 529 NSCLC; 64.4 µM in the assay on XF 498 CNS; more than 80.7 µM with DLD-1 colon; more than 100 µM in the assay with RXF-631 renal; more than 79.8 µM in the assay with SNB-78 CNS.
For the molecule `CCOC(=O)/C(=C/c1ccco1)P(=O)(OCC)OCC`, the TGI with HOP-18 NSCLC, in the assay on LXFL 529 NSCLC, with XF 498 CNS, in the assay on DLD-1 colon and in the assay with SNB-78 CNS was more than 100 µM throughout.
Turning to `NC(CCSCC(F)F)C(=O)O` (configuration not stated), the TGI with HOP-18 NSCLC, with LXFL 529 NSCLC, in the assay on XF 498 CNS, with DLD-1 colon, in the assay on RXF-631 renal and in the assay with SNB-78 CNS was more than 100 µM each time.
`COCC(=O)OC1CCn2c1nc1c2C(=O)C(C)=C(NC(C)=O)C1=O` (configuration not stated): the TGI turned out to be 57.2 µM with HOP-18 NSCLC; 11.5 µM with LXFL 529 NSCLC; 11.4 µM in the assay with XF 498 CNS; 28.8 µM in the assay with DLD-1 colon; 4.4 µM with SNB-78 CNS.
Regarding `Cc1cc(C)nc(NS(=O)(=O)c2ccc(Nc3c4ccccc4nc4c(C(=O)N5CCN(CCOS(C)(=O)=O)CC5)ccc(Cl)c34)cc2)n1`, the TGI with XF 498 CNS, with DLD-1 colon, with RXF-631 renal and in the assay with SNB-78 CNS was more than 100 µM each time.
Regarding `CCC1(CC)C(=O)NC(=S)N=C1N`, the TGI with HOP-18 NSCLC, in the assay on LXFL 529 NSCLC, in the assay on XF 498 CNS, in the assay with DLD-1 colon and with RXF-631 renal was more than 100 µM each time.
For the molecule `N#CC(C#N)=Cc1cccc(Oc2ccccc2)c1`, the TGI in the assay on HOP-18 NSCLC was 42.4 µM; with LXFL 529 NSCLC, 41 µM; in the assay with XF 498 CNS, 46.6 µM; in the assay on DLD-1 colon it was 51.9 µM; in the assay on SNB-78 CNS, 99.9 µM.
For the molecule `COC(=O)/C(=N\NC(=S)NN)C(C(=O)C(=O)Nc1ccccc1C(N)=O)c1nc2ccccc2[nH]c1=O` (configuration not stated), the TGI in the assay on HOP-18 NSCLC, in the assay on LXFL 529 NSCLC, in the assay on XF 498 CNS, in the assay with RXF-631 renal and in the assay on SNB-78 CNS was more than 100 µM each time.
Turning to `O=C1CCn2c([nH]c3cccc4cccc2c43)=N1`, the TGI in the assay with LXFL 529 NSCLC, with XF 498 CNS and in the assay on SNB-78 CNS was more than 100 µM in each case.
With `O=C(NN1C(=O)CSC1c1ccc(Cl)c(Cl)c1)c1ccncc1` (configuration not stated), the TGI in the assay on LXFL 529 NSCLC, with XF 498 CNS, in the assay on DLD-1 colon, with RXF-631 renal and in the assay on SNB-78 CNS was more than 100 µM each time.
Turning to `CCOC(=O)C(C)NC(=O)N(C)C12CC3CC(CC(C3)C1)C2` (configuration not stated), the TGI with P388/ADR leukemia was more than 409 µM; with HOP-18 NSCLC, more than 500 µM; with P388 leukemia, 231 µM; in the assay on XF 498 CNS it was 453 µM; with SN12K1 renal, more than 500 µM; in the assay with DLD-1 colon, more than 79.3 µM. This molecule also gave a TGI in the assay with SNB-78 CNS of more than 500 µM.
On to `C=C1CC2C(=O)N(c3ccccc3)C(=O)C2CC1n1[nH]c(=O)n(Cc2ccccc2)c1=O` (configuration not stated), for which the TGI in the assay on HOP-18 NSCLC, in the assay on LXFL 529 NSCLC, with XF 498 CNS, in the assay with DLD-1 colon and in the assay with SNB-78 CNS was more than 100 µM each time.
Consider `COC(=O)C(=O)C(C(=O)C(=O)Nc1cc([N+](=O)[O-])ccc1C#N)c1nc2ccccc2[nH]c1=O` (configuration not stated), for which the TGI with HOP-18 NSCLC, in the assay with LXFL 529 NSCLC, with XF 498 CNS, in the assay on DLD-1 colon and with RXF-631 renal was more than 100 µM in each case.
For the molecule `COc1ccc(/C=C/C(=O)c2sc(-n3nc(-c4ccccc4)cc3-c3ccccc3)nc2C)cc1OC`, the TGI in the assay on HOP-18 NSCLC, with LXFL 529 NSCLC, with XF 498 CNS, in the assay on DLD-1 colon and in the assay on RXF-631 renal was more than 100 µM throughout.
`O=c1cc(-c2ccccc2F)[nH]c2cc3c(cc12)OCO3`: the TGI was 61.1 µM with HOP-18 NSCLC; 16.5 µM in the assay on LXFL 529 NSCLC; 91.7 µM in the assay with XF 498 CNS; 2.82 µM with DLD-1 colon; more than 100 µM in the assay on SNB-78 CNS.
Turning to `COc1cc(CCCOC2OC(COC3OCC(O)C(O)C3O)C(O)C(O)C2O)cc2cc(-c3ccc4c(c3)OCO4)oc12` (configuration not stated), the TGI in the assay on P388/ADR leukemia, in the assay with P388 leukemia, in the assay with XF 498 CNS, in the assay on SN12K1 renal, with DLD-1 colon and with SNB-78 CNS was more than 175 µM in each case.
